# Data reported in patent US20210093619A1, “Chemical Compounds as ATF-4 Pathway Inhibitors” (GlaxoSmithKline Intellectual Property Development Limited, priority 2017, published 2021).
# pIC50: −log10 of the molar value.
# Tested on: ATF4 pathway
# Experiment: ATF4 Cell Based Assay (SH-SY5Y-ATF4-NanoLuc reporter, Thapsigargin challenge)
# Details: SH-SY5Y-ATF4-NanoLuc cells, Thapsigargin 14-18 hours; average of a set of two or more experimental runs; read-out: average ATF4 pathway inhibitory activity (IC50)
# Text: The ATF4 reporter assay measures the effect of Thapsigargin induced cellular stress on ATF4 expression. For this reporter assay, a stable cell line was created by transfecting SH-SY5Y cells with a plasmid containing the NanoLuc® luciferase gene fused to the 5′-UTR of ATF4, under the control of the CMV promoter. The ATF4 5′-UTR contains two open reading frames which mediate the cellular stress-dependent translation of the reporter gene. Clones stably expressing the reporter construct were isolated and selected based on the luminescence response to thapsigargin and inhibition of this signal by test compounds. Briefly, SH-SY5Y-ATF4-NanoLuc cells were challenged with Thapsigargin for 14-18 hours to determine the stress effect with or without test compounds.
# Cells were propagated in growth media consisting of 90% DMEM F12 (InVitrogen #11320-033), 10% Fetal Bovine Serum (Gibco #10438-026), 5mM Glutamax (Gibco #35050-061), 5 mM Hepes, (Gibco #15630-080), and 0.5 mg/ml Geneticin (Gibco #10131-027). Cells were prepared for the assay by removing all media from cells, washing the plated cells with phosphate buffered saline, and detached by adding a solution comprised of 10% Tryple express solution (InVitrogen12604-021) and 90% enzyme-free cell dissociation buffer HANKS base (Gibco 13150-016). The trypsin was deactivated by adding assay media comprised of 90% phenol-red free DMEM F12 (InVitrogen, 11039), 10% Fetal Bovine Serum (Gibco #10438-026),(5 mM Glutamax (Gibco #35050-061), 5 mM Hepes, (Gibco #15630-080), and 0.5 mg/ml Geneticin (Gibco #10131-027). Suspended cells were spun down at 300 g for 5 min, the supernatant was removed and the cell pellet was suspended in warm media (30-37° C.) comprised as above but without 10% Fetal Bovine Serum to a concentration of 1 e6 cells/ml.
# Assay plates were prepared by adding 250 nL of compound stock solution in 100% DMSO to each well, followed by dispensing 20 microliters/well cell suspension to deliver 15-20 k cell/well. Cells were incubated for 1 hour at 37° C. Then, 5 μL of 1.5 μM or 1 μM of Thapsigargin (final concentration: 200-300 nM) was added to each well of cells. Assay plates containing cells were incubated for 14-18 hours at 37° C.
# The measurement of luciferase produced by the ATF4 constructs was measured as follows. Aliquots of the Nano-Glo reagent (Nano-Glo® Luciferase Assay Substrate, Promega, N113, Nano-Glo® Luciferase Assay Buffer, Promega, N112 (parts of Nano-Glo® Luciferase Assay System, N1150) were brought to room temperature, the substrate and buffer were mixed according to manufacturer's instructions. The cell plates were equilibrated to room temperature. 25 microliters/well of the mixed Nano-Glo reagent were dispensed into assay wells and pulse spun to settle contents and the plate was sealed with film. The plates were incubated at room temperature for 1 hour before detecting luminescence on an EnVision® plate reader.
row,Structure (SMILES),pIC50
1,"O=C(COc1ccc(F)cc1)NC12CC(N3CCC(Oc4ccc(Cl)cc4)C3)(C1)C2 (single isomer, unassigned) [Example 6e, N-(3-(3-(4-chlorophenoxy)pyrrolidin-1-yl)bicyclo[1.1.1]pentan-1-yl)-2-(4-fluorophenoxy)acetamide]",7.70
2,"O=C(COc1ccc(Cl)c(F)c1)NC12CC(N3CCC(Oc4ccc(Cl)cc4)C3)(C1)C2 (single isomer, unassigned) [Example 6o, 2-(4-chloro-3-fluorophenoxy)-N-(3-(3-(4-chlorophenoxy)pyrrolidin-1-yl)bicyclo[1.1.1]pentan-1-yl)acetamide]",8.24
3,"O=C(COc1ccc(Cl)cc1)NC12CC(N3CCC(Oc4ccc(Cl)c(F)c4)C3)(C1)C2 (single isomer, unassigned) [Example 6v, N-(3-(3-(4-chloro-3-fluorophenoxy)pyrrolidin-1-yl)bicyclo[1.1.1]pentan-1-yl)-2-(4-chlorophenoxy)acetamide]",8.00
4,"O=C(COc1ccc(Cl)cc1)NC12CC(N3CCC(Oc4ccc(Cl)cc4)C3)(C1)C2 (stereo in doubt) [Example 6c, (R)-2-(4-chlorophenoxy)-N-(3-(3-(4-chlorophenoxy)pyrrolidin-1-yl)bicyclo[1.1.1]pentan-1-yl)acetamide]",8.17
5,"O=C(COc1cccc(Cl)c1)NC12CC(N3CCN(c4ccc(Cl)cc4)C3=O)(C1)C2 [Example 1g, 2-(3-chlorophenoxy)-N-(3-(3-(4-chlorophenyl)-2-oxoimidazolidin-1-yl)bicyclo[1.1.1]pentan-1-yl)acetamide]",7.77
6,"O=C(COc1ccc(Cl)cn1)NC12CC(N3CCN(c4ccc(Cl)cc4)C3=O)(C1)C2 [Example 1k, N-(3-(3-(4-chlorophenyl)-2-oxoimidazolidin-1-yl)bicyclo[1.1.1]pentan-1-yl)-2-((5-chloropyridin-2-yl)oxy)acetamide]",7.47
7,"O=C(COc1ccc(Cl)c(C(F)(F)F)c1)NC12CC(N3CCN(c4ccc(Cl)cc4)C3=O)(C1)C2 [Example 1l, 2-(4-chloro-3-(trifluoromethyl)phenoxy)-N-(3-(3-(4-chlorophenyl)-2-oxoimidazolidin-1-yl)bicyclo[1.1.1]pentan-1-yl)acetamide]",8.80
8,"O=C(COc1ccc(Cl)c(F)c1)NC12CC(N3CCN(c4ccc(Cl)cc4)C3=O)(C1)C2 [Example 1m, 2-(4-chloro-3-fluorophenoxy)-N-(3-(3-(4-chlorophenyl)-2-oxoimidazolidin-1-yl)bicyclo[1.1.1]pentan-1-yl)acetamide]",9.22
9,"O=C(COc1ccc(F)c(Cl)c1)NC12CC(N3CCN(c4ccc(Cl)cc4)C3=O)(C1)C2 [Example 1o, 2-(3-chloro-4-fluorophenoxy)-N-(3-(3-(4-chlorophenyl)-2-oxoimidazolidin-1-yl)bicyclo[1.1.1]pentan-1-yl)acetamide]",7.99
10,"O=C(COc1ccc(Cl)cc1)NC12CC(N3CCN(c4ccc(C(F)(F)F)cc4)C3=O)(C1)C2 [Example 1r, 2-(4-chlorophenoxy)-N-(3-(2-oxo-3-(4-(trifluoromethyl)phenyl)imidazolidin-1-yl)bicyclo[1.1.1]pentan-1-yl)acetamide]",8.74
11,"COc1ccc(N2CCN(C34CC(NC(=O)COc5ccc(Cl)cc5)(C3)C4)C2=O)cc1 [Example 1t, 2-(4-chlorophenoxy)-N-(3-(3-(4-methoxyphenyl)-2-oxoimidazolidin-1-yl)bicyclo[1.1.1]pentan-1-yl)acetamide]",7.29
12,"O=C(COc1ccc(Cl)cc1)NC12CC(N3CCN(c4ccc(Cl)cc4F)C3=O)(C1)C2 [Example 1v, N-(3-(3-(4-chloro-2-fluorophenyl)-2-oxoimidazolidin-1-yl)bicyclo[1.1.1]pentan-1-yl)-2-(4-chlorophenoxy)acetamide]",7.63
13,"O=C(COc1ccc(Cl)cc1)NC12CC(NC3CN(c4ccc(Cl)cc4)C3)(C1)C2 [Example 3a, 2-(4-chlorophenoxy)-N-(3-((1-(4-chlorophenyl)azetidin-3-yl)amino)bicyclo[1.1.1]pentan-1-yl)acetamide]",7.87 to 8.44
14,"O=C(COc1ccc(Cl)cc1)NC12CC(N3CC(Oc4ccc(Cl)cc4)C3)(C1)C2 [Example 3b, 2-(4-chlorophenoxy)-N-(3-(3-(4-chlorophenoxy)azetidin-1-yl)bicyclo[1.1.1]pentan-1-yl)acetamide]",7.87 to 8.44
15,"O=C(COc1ccc(Cl)cc1)NC12CC(NC(=O)COc3ccc4c(c3)CCCO4)(C1)C2 [Example 4d, 2-(4-chlorophenoxy)-N-(3-(2-(chroman-6-yloxy)acetamido)bicyclo[1.1.1]pentan-1-yl)acetamide]",7.91
16,"O=C(COc1ccc(C(F)(F)F)cc1)NC12CC(N3CCC(Oc4ccc(Cl)cc4)C3)(C1)C2 (centres unmarked) [Example 6i, N-(3-(3-(4-chlorophenoxy)pyrrolidin-1-yl)bicyclo[1.1.1]pentan-1-yl)-2-(4-(trifluoromethyl)phenoxy)acetamide]",8.16
17,"O=C(COc1ccc(Cl)c(C(F)(F)F)c1)NC12CC(N3CCC(Oc4ccc(Cl)cc4)C3)(C1)C2 (centres unmarked) [Example 6k, 2-(4-chloro-3-(trifluoromethyl)phenoxy)-N-(3-(3-(4-chlorophenoxy)pyrrolidin-1-yl)bicyclo[1.1.1]pentan-1-yl)acetamide]",7.61
18,"O=C(COc1ccc(Cl)c(F)c1)NC12CC(N3CCC(Oc4ccc(Cl)cc4)C3)(C1)C2 (centres unmarked) [Example 6q, 2-(4-chloro-3-fluorophenoxy)-N-(3-(3-(4-chlorophenoxy)pyrrolidin-1-yl)bicyclo[1.1.1]pentan-1-yl)acetamide]",8.96
19,"O=C(COc1ccc(Cl)cc1)NC12CC(N3CCC(Oc4ccc(Cl)cc4)CC3)(C1)C2 [Example 8a, 2-(4-chlorophenoxy)-N-(3-(4-(4-chlorophenoxy)piperidin-1-yl)bicyclo[1.1.1]pentan-1-yl)acetamide]",8.29
20,"O=C(COc1ccc(Cl)cc1)NC12CCC(NC(=O)COc3ccc(Cl)nc3)(CC1)CC2 [Example III, 2-(4-chlorophenoxy)-N-(4-(2-((6-chloropyridin-3-yl)oxy)acetamido)bicyclo[2.2.2]octan-1-yl)acetamide]",8.05
21,"Cc1ccc(OCC(=O)NC23CC(NC(=O)COc4ccc(Cl)cc4)(C2)C3)cn1 [Example IX, 2-(4-chlorophenoxy)-N-(3-(2-((6-methylpyridin-3-yl)oxy)acetamido)bicyclo[1.1.1]pentan-1-yl)acetamide]",6.52
22,"O=C(COc1ccc(Cl)cc1)NC12CC(NC(=O)Cc3ccc(Cl)cc3)(C1)C2 [Example VI, 2-(4-chlorophenoxy)-N-(3-(2-(4-chlorophenyl)acetamido)bicyclo[1.1.1]pentan-1-yl)acetamide]",8.39
23,"O=C(COc1ccc(Cl)cc1)NC12CC(NC(=O)c3ccc(Cl)cc3)(C1)C2 [Example XII, 4-chloro-N-(3-(2-(4-chlorophenoxy)acetamido)bicyclo[1.1.1]pentan-1-yl)benzamide]",7.60
24,"COC(=O)CN(CCOc1ccc(Cl)cc1)C12CC(NC(=O)COc3ccc(Cl)cc3)(C1)C2 [Example XVI, methyl N-(3-(2-(4-chlorophenoxy)acetamido)bicyclo[1.1.1]pentan-1-yl)-N-(2-(4-chlorophenoxy)ethyl)glycinate]",7.89
25,"O=C(COc1ccc(Cl)cc1)NC12CC(NCCNc3ccc(Cl)cc3)(C1)C2 [Example XXI, 2-(4-chlorophenoxy)-N-(3-((2-((4-chlorophenyl)amino)ethyl)amino)bicyclo[1.1.1]pentan-1-yl)acetamide]",7.48
26,O=C(COc1ccc(Cl)cc1)NC12CC(N3CCC(Oc4ccc(Cl)cc4)C3)(C1)C2 (centres unmarked) [XXIV and 6a],8.14
